Results: the supplement of paper PMC10307832

Key:
Experiment in all cases: relative viability (nuclei count vs DMSO), 5 days (fraction); higher = more cells survive
NCI-H2228 = test system: NCI-H2228
Summary of the method: (§1)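 One day after seeding in 1536-well plates, lung cancer cell lines were dosed by pin tool. Dosing was either single-drug or a fixed anchor-drug dose plus five library-drug doses (not always all listed) in √10 steps. After 5 days, nuclei were stained in one fix-and-stain step and counted on 4× images, and relative viability is the nuclei count of treated wells over that of vehicle wells, given as the median of duplicate plates.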

NCI-H2087 = test system: NCI-H2087
Summary of the method: as §1

LC-2-ad = test system: LC-2-ad
Summary of the method: as §1

HCC-366 = test system: HCC-366
Summary of the method: as §1

HCC-78 = test system: HCC-78
Summary of the method: as §1

UMC-11 = test system: UMC-11
Summary of the method: as §1

NCI-H1755 = test system: NCI-H1755
Summary of the method: as §1

CAL-12T = test system: CAL-12T
Summary of the method: as §1

NCI-H3122 = test system: NCI-H3122
Summary of the method: as §1

PC-3 [JPC-3] = test system: PC-3 [JPC-3]
Summary of the method: as §1

NCI-H1651 = test system: NCI-H1651
Summary of the method: as §1

LOU-NH91 = test system: LOU-NH91
Summary of the method: as §1

ChaGo-K-1 = test system: ChaGo-K-1
Summary of the method: as §1

NCI-H460 = test system: NCI-H460
Summary of the method: as §1

ABC-1 = test system: ABC-1
Summary of the method: as §1

NCI-H1793 = test system: NCI-H1793
Summary of the method: as §1

LU99A = test system: LU99A
Summary of the method: as §1

NCI-H2170 = test system: NCI-H2170
Summary of the method: as §1

NCI-H1395 = test system: NCI-H1395
Summary of the method: as §1

NCI-H2405 = test system: NCI-H2405
Summary of the method: as §1

NCI-H1944 = test system: NCI-H1944
Summary of the method: as §1

RERF-LC-KJ = test system: RERF-LC-KJ
Summary of the method: as §1

Cc1sc2c(c1C)C(c1ccc(Cl)cc1)=N[C@@H](CC(=O)OC(C)(C)C)c1nnc(C)n1-2 [JQ1] + CS(=O)(=O)N1CCN(Cc2cc3nc(-c4cccc5[nH]ncc45)nc(N4CCOCC4)c3s2)CC1 [Pictilisib] (partner 1 µM)
relative viability (NCI-H2228; first compound 0.04 µM): 0.372
relative viability (NCI-H2228; first compound 0.1265 µM): 0.327
relative viability (NCI-H2228; first compound 0.4 µM): 0.259
relative viability (NCI-H2228; first compound 1.265 µM): 0.245
relative viability (NCI-H2228; first compound 4 µM): 0.201
relative viability (NCI-H2087; first compound 0.04 µM): 0.792
relative viability (NCI-H2087; first compound 0.4 µM): 1.05
relative viability (NCI-H2087; first compound 1.265 µM): 0.318
relative viability (NCI-H2087; first compound 4 µM): 0.384
relative viability (LC-2-ad; first compound 0.04 µM): 0.386
relative viability (LC-2-ad; first compound 0.1265 µM): 0.605
relative viability (LC-2-ad; first compound 0.4 µM): 0.263
relative viability (LC-2-ad; first compound 1.265 µM): 0.121
relative viability (LC-2-ad; first compound 4 µM): 0.117
relative viability (HCC-366; first compound 0.04 µM): 0.136
relative viability (HCC-366; first compound 0.1265 µM): 0.156
relative viability (HCC-366; first compound 0.4 µM): 0.131
relative viability (HCC-366; first compound 1.265 µM): 0.153
relative viability (HCC-366; first compound 4 µM): 0.196
relative viability (HCC-78; first compound 0.04 µM): 0.212
relative viability (HCC-78; first compound 0.1265 µM): 0.313
relative viability (HCC-78; first compound 0.4 µM): 0.185
relative viability (HCC-78; first compound 1.265 µM): 0.214
relative viability (HCC-78; first compound 4 µM): 0.192
relative viability (UMC-11; first compound 0.04 µM): 0.724
relative viability (UMC-11; first compound 0.1265 µM): 0.664
relative viability (UMC-11; first compound 0.4 µM): 0.338
relative viability (UMC-11; first compound 1.265 µM): 0.209
relative viability (UMC-11; first compound 4 µM): 0.192
relative viability (NCI-H1755; first compound 0.04 µM): 0.404
relative viability (NCI-H1755; first compound 0.1265 µM): 0.419
relative viability (NCI-H1755; first compound 0.4 µM): 0.421
relative viability (NCI-H1755; first compound 1.265 µM): 0.208
relative viability (NCI-H1755; first compound 4 µM): 0.185
relative viability (CAL-12T; first compound 0.04 µM): 0.414
relative viability (CAL-12T; first compound 0.4 µM): 0.457
relative viability (CAL-12T; first compound 1.265 µM): 0.293
relative viability (CAL-12T; first compound 4 µM): 0.36
relative viability (NCI-H3122; first compound 0.04 µM): 0.576
relative viability (NCI-H3122; first compound 0.1265 µM): 0.624
relative viability (NCI-H3122; first compound 0.4 µM): 0.675
relative viability (NCI-H3122; first compound 1.265 µM): 0.425
relative viability (NCI-H3122; first compound 4 µM): 0.445
relative viability (PC-3 [JPC-3]; first compound 0.04 µM): 0.69
relative viability (PC-3 [JPC-3]; first compound 0.1265 µM): 0.727
relative viability (PC-3 [JPC-3]; first compound 0.4 µM): 0.443
relative viability (PC-3 [JPC-3]; first compound 1.265 µM): 0.501
relative viability (PC-3 [JPC-3]; first compound 4 µM): 0.382
relative viability (NCI-H1651; first compound 0.04 µM): 0.476
relative viability (NCI-H1651; first compound 0.1265 µM): 0.451
relative viability (NCI-H1651; first compound 0.4 µM): 0.335
relative viability (NCI-H1651; first compound 1.265 µM): 0.271
relative viability (NCI-H1651; first compound 4 µM): 0.245
relative viability (LOU-NH91; first compound 0.04 µM): 0.529
relative viability (LOU-NH91; first compound 0.1265 µM): 0.545
relative viability (LOU-NH91; first compound 0.4 µM): 0.463
relative viability (LOU-NH91; first compound 1.265 µM): 0.419
relative viability (LOU-NH91; first compound 4 µM): 0.354
relative viability (ChaGo-K-1; first compound 0.04 µM): 0.752
relative viability (ChaGo-K-1; first compound 0.4 µM): 0.658
relative viability (ChaGo-K-1; first compound 1.265 µM): 0.407
relative viability (ChaGo-K-1; first compound 4 µM): 0.43
relative viability (NCI-H460; first compound 0.04 µM): 0.398
relative viability (NCI-H460; first compound 0.4 µM): 0.276
relative viability (NCI-H460; first compound 1.265 µM): 0.204
relative viability (NCI-H460; first compound 4 µM): 0.135
relative viability (ABC-1; first compound 0.04 µM): 0.699
relative viability (ABC-1; first compound 0.1265 µM): 0.545
relative viability (ABC-1; first compound 0.4 µM): 0.512
relative viability (ABC-1; first compound 1.265 µM): 0.387
relative viability (ABC-1; first compound 4 µM): 0.365
relative viability (NCI-H1793; first compound 0.04 µM): 0.434
relative viability (NCI-H1793; first compound 0.1265 µM): 0.391
relative viability (NCI-H1793; first compound 0.4 µM): 0.564
relative viability (NCI-H1793; first compound 1.265 µM): 0.339
relative viability (NCI-H1793; first compound 4 µM): 0.453
relative viability (LU99A; first compound 0.04 µM): 0.322
relative viability (LU99A; first compound 0.1265 µM): 0.32
relative viability (LU99A; first compound 0.4 µM): 0.398
relative viability (LU99A; first compound 1.265 µM): 0.201
relative viability (LU99A; first compound 4 µM): 0.203
relative viability (NCI-H2170; first compound 0.04 µM): 0.293
relative viability (NCI-H2170; first compound 0.1265 µM): 0.292
relative viability (NCI-H2170; first compound 0.4 µM): 0.261
relative viability (NCI-H2170; first compound 1.265 µM): 0.188
relative viability (NCI-H2170; first compound 4 µM): 0.152
relative viability (NCI-H1395; first compound 0.04 µM): 0.652
relative viability (NCI-H1395; first compound 0.1265 µM): 0.582
relative viability (NCI-H1395; first compound 0.4 µM): 0.62
relative viability (NCI-H1395; first compound 1.265 µM): 0.403
relative viability (NCI-H1395; first compound 4 µM): 0.407
relative viability (NCI-H2405; first compound 0.04 µM): 0.536
relative viability (NCI-H2405; first compound 0.4 µM): 0.405
relative viability (NCI-H2405; first compound 1.265 µM): 0.263
relative viability (NCI-H2405; first compound 4 µM): 0.221
relative viability (NCI-H1944; first compound 0.04 µM): 0.357
relative viability (NCI-H1944; first compound 0.1265 µM): 0.332
relative viability (NCI-H1944; first compound 0.4 µM): 0.311
relative viability (NCI-H1944; first compound 1.265 µM): 0.288
relative viability (NCI-H1944; first compound 4 µM): 0.307
relative viability (RERF-LC-KJ; first compound 0.04 µM): 0.579
relative viability (RERF-LC-KJ; first compound 0.1265 µM): 0.661
relative viability (RERF-LC-KJ; first compound 0.4 µM): 0.595
relative viability (RERF-LC-KJ; first compound 1.265 µM): 0.304
relative viability (RERF-LC-KJ; first compound 4 µM): 0.337
